Laboratory results taken from patent EP0858509B1, “DNA SEQUENCES ENCODING CMH-1, A CYSTEINE PROTEASE INVOLVED IN APOPTOSIS” (VERTEX PHARMACEUTICALS INCORPORATED, priority 1995, dated 1997).

What follows are molecules tested against T1, CMH-1 (Homo sapiens, UniProt P55210) (assay: Inhibition of in vitro cleavage of 35S-labelled PARP by CMH-1 (SDS-PAGE and fluorography)). Conditions: 35S-labelled PARP as substrate, Fig. 4, panel B.
T1 construct: we expressed an N-terminal (His)6-tagged CMH-1(Ala24-Gln303) in E. coli; made in house; host or cells: E. coli BL21(DE3), pET-15b
T1 sequence (P55210 24-303): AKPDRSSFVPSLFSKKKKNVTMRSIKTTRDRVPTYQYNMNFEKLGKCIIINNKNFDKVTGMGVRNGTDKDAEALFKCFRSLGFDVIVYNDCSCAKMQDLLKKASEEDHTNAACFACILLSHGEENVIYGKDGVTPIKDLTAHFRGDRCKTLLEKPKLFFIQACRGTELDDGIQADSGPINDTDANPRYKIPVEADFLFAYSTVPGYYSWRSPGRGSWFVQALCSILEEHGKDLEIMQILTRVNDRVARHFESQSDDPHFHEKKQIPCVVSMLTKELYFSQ
T1 sequence (P55210 199-303): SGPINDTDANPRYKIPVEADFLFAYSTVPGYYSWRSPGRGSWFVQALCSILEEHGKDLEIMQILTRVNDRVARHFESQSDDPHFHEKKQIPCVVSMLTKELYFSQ
Format: biochemical
Protocol: In order to determine the activity of purified CMH-1, we determined whether the protein could cleave ^35[S]-labeled pro-IL-1b and PARP and compared its cleavage activity to purified ICE. We prepared ^35[S]-labeled PARP and IL-1b precursor (pro-IL-1b) by in vitro transcription and translation. Cleavage experiments were carried out as described previously [Y. Gu et al., J. Biol. Chem. (1995)]. Cleavage products were analyzed by SDS-PAGE and fluorography as described in that reference.

Molecule | inhibition of the cleavage activity of CMH-1
CCN1C(=O)C=CC1=O [N-ethylmaleimide] | inhibited
YVAD-CHO | not
NC(=O)CI [iodoacetamide] | inhibited
